Test [1] deals with T1, PRMT5 (Homo sapiens, UniProt O14744).
T1 construct: purchased Viva (custom protein)
The test can be described thus: PRMT5 biochemical IC50 assay with MTA as cofactor. The following applies: PRMT5, MTA as cofactor; read-out: MTA IC50.

In test [2] the test system is HAP1 MTAP-deleted cell line. The test can be described thus: Viability assay, MTAP-deleted cell line. Type of test: cell-based. The following applies: Homo sapiens, read-out: HAP1 MTAP deleted viability. An excerpt:
Table 1 additionally indicates IC50 values in a viability assay for the MTAP-deleted cell line (column 10), indicating the effect of treatment with compound on cell survival.

The target in test [3] is T1, PRMT5. The test can be described thus: PRMT5 biochemical IC50 assay with SAM as cofactor. The settings on record: PRMT5, SAM as cofactor; read-out: SAM IC50.
Test [4] relates to HAP1 MTAP-intact cell line. The test can be described thus: SDMA in-cell western assay, HAP1 MTAP-intact. The following applies: Homo sapiens, HAP1, SDMA in-cell western, HAP1 MTAP-intact; read-out: MTAP HAP1 intact IC50. Type of test: cell-based. The essentials: (§1)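 IC50 values come from SDMA signal quantified by in-cell western in two HAP1 lines, one with native MTAP levels and one lacking MTAP.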

The test system of test [5] is HAP1 MTAP-deleted cell line. The test can be described thus: SDMA in-cell western assay, HAP1 MTAP-deleted. It counts as cell-based. The following applies: for IC50: Homo sapiens, HAP1, SDMA in-cell western, HAP1 MTAP-deleted; for MTAP intact/deleted ratio: IC50 ratio HAP1 MTAP-intact / HAP1 MTAP-deleted, SDMA in-cell western. The method, boiled down: as §1
For test [6], the target named is T1, PRMT5. The test can be described thus: PRMT5 biochemical IC50 assay with no cofactor. The settings on record: PRMT5, no cofactor. An excerpt: Table 1 indicates IC50 values (μM) against PRMT5 for exemplary compounds in the presence of SAM as cofactor, with no cofactor, and with MTA as cofactor, respectively (columns 4-6). […] Ki values can be calculated from the IC50 values as described in the Examples section. As detailed in the Examples section, for the assay performed in the presence of SAM, IC50=Ki×1.5 (Ki=IC50/1.5).

The mark [7] stands for this setting: HAP1, viability, HAP1 MTAP-deleted cell line.
Setting [8] is: read-out: HAP 1 MTAP deleted IC50.
The mark [9] stands for this setting: read-out: No Cofactor/ rel IC50.

SMILES strings stand for the structures.

T1 sequence (O14744 whole entry): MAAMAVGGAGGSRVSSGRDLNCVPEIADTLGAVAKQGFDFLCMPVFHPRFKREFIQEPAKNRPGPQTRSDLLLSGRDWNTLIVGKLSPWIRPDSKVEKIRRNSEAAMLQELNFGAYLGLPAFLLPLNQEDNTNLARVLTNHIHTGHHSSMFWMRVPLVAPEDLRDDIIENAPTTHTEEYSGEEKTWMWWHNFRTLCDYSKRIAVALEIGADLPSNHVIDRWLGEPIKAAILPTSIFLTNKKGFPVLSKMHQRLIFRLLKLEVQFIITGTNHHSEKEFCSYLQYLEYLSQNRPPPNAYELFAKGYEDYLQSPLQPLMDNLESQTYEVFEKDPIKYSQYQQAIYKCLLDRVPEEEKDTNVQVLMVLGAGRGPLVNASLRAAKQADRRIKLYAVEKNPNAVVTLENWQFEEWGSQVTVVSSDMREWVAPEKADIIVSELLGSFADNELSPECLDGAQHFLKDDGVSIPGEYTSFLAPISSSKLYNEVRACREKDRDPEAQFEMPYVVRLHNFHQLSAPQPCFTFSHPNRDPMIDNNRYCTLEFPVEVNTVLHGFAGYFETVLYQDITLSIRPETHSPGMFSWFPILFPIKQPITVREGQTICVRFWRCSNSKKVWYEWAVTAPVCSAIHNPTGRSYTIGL
T1 sequence (Q9BQA1 whole entry partner): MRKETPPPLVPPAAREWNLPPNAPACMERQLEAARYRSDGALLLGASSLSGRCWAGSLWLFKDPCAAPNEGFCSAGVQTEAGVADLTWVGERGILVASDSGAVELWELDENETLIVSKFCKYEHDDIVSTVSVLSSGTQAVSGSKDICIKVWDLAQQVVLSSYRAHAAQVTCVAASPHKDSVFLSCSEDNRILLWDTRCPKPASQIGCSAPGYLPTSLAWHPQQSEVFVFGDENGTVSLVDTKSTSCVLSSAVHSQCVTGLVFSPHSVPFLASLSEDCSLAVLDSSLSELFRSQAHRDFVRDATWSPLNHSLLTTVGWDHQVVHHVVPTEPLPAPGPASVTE

Take `CCc1cc(NC(=O)C(=O)N2C[C@H](C)CC[C@H]2c2ccc(N3CCN(C(C)C)CC3)cc2)cnc1N` (single isomer, unassigned) [Compound 1234]: the IC50 was above 500 nM in test [1]; 1000 to 10000 nM in test [2] (HAP1, viability assay, MTAP-deleted cell line); above 500 nM in test [3]; above 1000 nM in test [4]; above 1000 nM in test [5] (read-out: HAP1 MTAP deleted IC50); above 500 nM in test [6] (read-out: No Cofactor/rel IC50).

As to `CO[C@@H]1C[C@@H](c2ccc3scnc3c2)N(C(=O)C(=O)Nc2cnc(N)c(C3CC3)c2)C[C@@H]1C` (single isomer, unassigned) [Compound 1241], the IC50 in test [1] is above 500 nM; in test [2] (setting [7]) it was 1000 to 10000 nM; in test [3] it was above 500 nM; in test [4], above 1000 nM; in test [5] (setting [8]) it was above 1000 nM; in test [6] (setting [9]) it was above 500 nM.

For the molecule `CCc1cc(NC(=O)C(=O)N2C[C@@H](C)CC[C@@H]2c2ccc(N3CCC4(CCCN(C)C4)CC3)cc2)cnc1N` (single isomer, unassigned) [Compound 1243], the IC50 in test [1] was below 50 nM; in test [2] (setting [7]), below 1000 nM; in test [3], 50 to 500 nM; in test [4], 100 to 1000 nM; in test [5] (setting [8]) it was below 100 nM; in test [6] (setting [9]), below 50 nM. Further, the “MTAP intact/deleted ratio” value in test [5] is given as “A (an IC50 ratio greater than or equal to 10 fold)”.

As to `C[C@@H]1CC[C@@H](c2ccc3c(cnn3CCN(C)C)c2)N(C(=O)C(=O)Nc2cnc(N)c(C3CC3)c2)C1` (single isomer, unassigned) [Compound 1249], the IC50 in test [1] was below 50 nM; in test [2] (setting [7]), below 1000 nM; in test [3] it was 50 to 500 nM; in test [4] it was 100 to 1000 nM; in test [5] (setting [8]) it was below 100 nM; in test [6] (setting [9]) it was below 50 nM. In addition, the “MTAP intact/deleted ratio” value in test [5] is on record as “A (an IC50 ratio greater than or equal to 10 fold)”.

Take `C[C@H]1CC[C@H](c2ccc3[nH]ncc3c2)N(C(=O)C(=O)Nc2cnc(N)c(C3CC3)c2)C1` (single isomer, unassigned) [Compound 1251]: the IC50 in test [1] is below 50 nM; in test [2] (setting [7]), below 1000 nM; in test [3], below 50 nM; in test [4] it was below 100 nM; in test [5] (setting [8]), below 100 nM; in test [6] (setting [9]), below 50 nM. Also, the “MTAP intact/deleted ratio” value in test [5] is recorded as “A (an IC50 ratio greater than or equal to 10 fold)”.

With `Cc1cc(NC(=O)C(=O)N2C[C@@H](C)CC[C@@H]2c2cccc(C3CCN(C)CC3)c2)cnc1N` (single isomer, unassigned) [Compound 1253], the IC50 was below 50 nM in test [1]; below 1000 nM in test [2] (setting [7]); below 50 nM in test [3]; 100 to 1000 nM in test [4]; below 100 nM in test [5] (setting [8]); below 50 nM in test [6] (setting [9]). For the same molecule, the “MTAP intact/deleted ratio” value in test [5] is given as “A (an IC50 ratio greater than or equal to 10 fold)”.

With `C[C@@H]1CC[C@@H](c2ccc3sc(CCN(C)C)nc3c2)N(C(=O)C(=O)Nc2cncc(C(N)=O)c2)C1` (single isomer, unassigned) [Compound 1254], the IC50 is below 50 nM in test [1]; below 1000 nM in test [2] (setting [7]); below 50 nM in test [3]; 100 to 1000 nM in test [4]; below 100 nM in test [5] (setting [8]); below 50 nM in test [6] (setting [9]). Moreover, the “MTAP intact/deleted ratio” value in test [5] is “A (an IC50 ratio greater than or equal to 10 fold)”.

For the molecule `C[C@H]1CC[C@H](c2ccc3sc(C4CCN(C)CC4)nc3c2)N(C(=O)C(=O)Nc2cncc(C(N)=O)c2)C1` (single isomer, unassigned) [Compound 1255], the IC50 was below 50 nM in test [1]; below 1000 nM in test [2] (setting [7]); 50 to 500 nM in test [3]; below 100 nM in test [4]; below 100 nM in test [5] (setting [8]); below 50 nM in test [6] (setting [9]). Moreover, the “MTAP intact/deleted ratio” value in test [5] is on record as “A (an IC50 ratio greater than or equal to 10 fold)”.

The record behind these values is patent publication US11999727B2 (Tango Therapeutics, Inc., priority 2020, dated 2024).
